# According to patent publication US20120309821A1, “Use of epigallocatechin-3-gallate for immune regulation” (NATIONAL DEFENSE MEDICAL CENTER, priority 2011, published 2012):
# Tests used:
# Assay type in all cases: in vivo, mouse
# [1] = tested on: IgG immune complex deposition in the glomerulus; assay: Kidney IgG immune complex deposits by immunofluorescence; details: 120 mg/kg by gavage daily; week 34; disease control vs EGCG-treated mice
# Experimental: Female NZB/W F1 mice were purchased from the Animal Center of the National Taiwan University (Taipei, Taiwan, ROC) and, at 12 weeks of age, were divided into two groups, one of which was given normal saline and served as the disease control, while the other was given 120 mg/kg body weight of EGCG (Ryss Lab, Inc., CA, USA) (this dose is a slight modification of those used in previous in vivo studies) by gavage daily till sacrificed at 34-weeks-old. 8-Week-old NZB/W F1 female mice (prior to onset of autoantibody production) were used as normal controls. Urine samples were collected in metabolic cages every 2 weeks and urine protein levels were measured, and serum samples were used to measure serum levels of blood urea nitrogen (BUN) and creatinine (Cr) as described previously (Ka, S. M. et al. Decoy receptor 3 ameliorates an autoimmune crescentic glomerulonephritis model in mice. J Am Soc Nephrol 18:2473-2485; 2007). All animal experiments were performed upon the ethical approval of the Institutional Animal Care and Use Committee of the National Defense Medical Center, Taiwan and according to the ethical rules in the NIH Guide for the Care and Use of Laboratory Animals. For immune complex detection, frozen renal tissues were prepared and incubated with fluorescein isothiocyanate (FITC)-conjugated goat anti-mouse IgG antibodies (Cappel, N.C., USA). […] Scoring of staining was recorded.
# [2] = tested on: NAD(P)H oxidase subunit p47phox; assay: Western blot of cytosolic p47phox in kidney; details: 120 mg/kg by gavage daily, week 34, increase seen in disease control
# Experimental: (§1) Female NZB/W F1 mice were purchased from the Animal Center of the National Taiwan University (Taipei, Taiwan, ROC) and, at 12 weeks of age, were divided into two groups, one of which was given normal saline and served as the disease control, while the other was given 120 mg/kg body weight of EGCG (Ryss Lab, Inc., CA, USA) (this dose is a slight modification of those used in previous in vivo studies) by gavage daily till sacrificed at 34-weeks-old. 8-Week-old NZB/W F1 female mice (prior to onset of autoantibody production) were used as normal controls. Urine samples were collected in metabolic cages every 2 weeks and urine protein levels were measured, and serum samples were used to measure serum levels of blood urea nitrogen (BUN) and creatinine (Cr) as described previously (Ka, S. M. et al. Decoy receptor 3 ameliorates an autoimmune crescentic glomerulonephritis model in mice. J Am Soc Nephrol 18:2473-2485; 2007). All animal experiments were performed upon the ethical approval of the Institutional Animal Care and Use Committee of the National Defense Medical Center, Taiwan and according to the ethical rules in the NIH Guide for the Care and Use of Laboratory Animals. […] Antibodies to histone H3 (Cell Signaling) or β-actin (Santa Cruz) were used as internal controls for the nuclear and cytosolic target proteins, respectively.
# [3] = tested on: glutathione peroxidase (GPx); assay: GPx activity in renal cortex lysates; details: 120 mg/kg by gavage daily; week 34; compared with increase in disease control mice
# Experimental: (§2) Female NZB/W F1 mice were purchased from the Animal Center of the National Taiwan University (Taipei, Taiwan, ROC) and, at 12 weeks of age, were divided into two groups, one of which was given normal saline and served as the disease control, while the other was given 120 mg/kg body weight of EGCG (Ryss Lab, Inc., CA, USA) (this dose is a slight modification of those used in previous in vivo studies) by gavage daily till sacrificed at 34-weeks-old. 8-Week-old NZB/W F1 female mice (prior to onset of autoantibody production) were used as normal controls. Urine samples were collected in metabolic cages every 2 weeks and urine protein levels were measured, and serum samples were used to measure serum levels of blood urea nitrogen (BUN) and creatinine (Cr) as described previously (Ka, S. M. et al. Decoy receptor 3 ameliorates an autoimmune crescentic glomerulonephritis model in mice. J Am Soc Nephrol 18:2473-2485; 2007). All animal experiments were performed upon the ethical approval of the Institutional Animal Care and Use Committee of the National Defense Medical Center, Taiwan and according to the ethical rules in the NIH Guide for the Care and Use of Laboratory Animals.
# [4] = tested on: NF-κB p65; assay: IHC of NF-κB p65 in kidney; details: 120 mg/kg by gavage daily; week 34; increase seen in disease control
# Experimental: as §2
# [5] = tested on: caspase-1; assay: Western blot of caspase-1 p20 in kidney; details: 120 mg/kg by gavage daily, week 34
# Experimental: as §1
# [6] = tested on: CD3+CD69+ cells (activated T cells); assay: T cell activation in splenocytes by flow cytometry; details: 120 mg/kg by gavage daily; week 34; increase seen in disease control
# Experimental: as §2, with “Animals. […]” for “Animals.”
substance,measurement,setting,value
Epigallocatechin-3-gallate [EGCG],IgG immune complex deposition in the glomerulus,[1],no significant difference
same,levels of NAD(P)H oxidase subunit p47phox,[2],abolished
same,GPx activity in the kidney,[3],even larger increase
same,"NF-κB p65 activity in the kidney (IHC, nuclear location)",[4],markedly inhibited
same,caspase-1 activation (appearance of the p20 subunit) in kidney,[5],significantly inhibited
same,percentage of CD3+CD69+ cells (activated T cells) in CD3+ splenocytes,[6],not inhibited
